Experimental data from patent US11779649B2, “Antibodies to PMEL17 and conjugates thereof” (Novartis AG, priority 2018, dated 2023).
Like-named read-outs stand apart in the source and are kept apart here. Positions of bridges follow the written chain, without caps; N, C: chain ends. Non-standard residues stand in square brackets, D forms with d. Residues, ends and D or L forms follow the SMILES beside them. Leu(3R-O(AcLeu(3R-OH))) = CC(=O)N[C@H](C(=O)O[C@H](C(C)C)[C@H](N)C(=O)O)[C@H](O)C(C)C; NMeT = CN[C@H](C(=O)O)[C@@H](C)O; dPhLac = O=C(O)[C@H](O)Cc1ccccc1; NMeA = CN[C@@H](C)C(=O)O; NMeDha = C=C(NC)C(=O)O

Experiments:
ERK signaling = test: Western-blotting of 92.1 cells, ERK signaling; assay type: cell-based; details: FIG. 3C
Protocol: (§1) 92.1 uveal melanoma were treated with increasing concentrations of Compound (A1) or Compound (A2) as indicated. Following drug treatment overnight, cells were processed for determination of IP1 levels using TR-FRET (time-resolved fluorescent resonance energy transfer) or protein levels by western-blotting.

[1] = Stability of Compound (A2), plasma, human; assay type: in vitro ADME; details: read-out: Plasma t½ (converted)
Protocol: (§2) In vitro stability of Compound (A2) was tested in plasma and blood from different species (FIG. 5A). […]

92.1 cells = test: Annexin V flow cytometry apoptosis assay, 92.1 cells; assay type: cell-based; details: 92.1 and MIAPACA cells, FIG. 2
Protocol: (§3) 92.1 and MIAPACA cells were seeded in 96-well plates (5000 cells per well) and treated with increasing concentrations of Compound (A1), Compound (A2), and a fixed dose of Staurosporine (100 nM, positive control) as indicated. Following drug treatment for 96, cells were subjected to fluorescence-activated flow cytometry using an Annexin V antibody conjugated to a fluorescent dye. Data presented as mean of 3 independent replicates.
as §3, with “92.1” for “92.1 and MIAPACA”, “3207-(B1) (Isotype control), G4-(B1),” for “Compound (A2),”, “G1-(B1)” for “a fixed dose of Staurosporine (100 nM, positive control)”

92.1 uveal melanoma = test: Resazurin-based viability assay, 92.1 uveal melanoma cells; assay type: cell-based
Protocol: (§4) Following drug treatment for 96 or 120 hours, cell viability and proliferation were determined using a resazurin-based viability assay. Briefly, cells were incubated with a resazurin-based solution and color change was detected by absorbance with a spectrophotometer and used as a readout of cell viability. Data presented as mean of 3 independent replicates and relative to PBS-treated cells (control).
as §4, with “(control) (FIG. 6).” for “(control).”
Following drug treatment for 96 or 120 hours, cell viability and proliferation were determined using a resazurin-based viability assay. Data presented as mean of 3 independent replicates and relative to PBS-treated cells (control) (FIG. 8).
as §4

GNAQ/11 = test: IP1 levels by TR-FRET in 92.1 uveal melanoma cells; assay type: cell-based; details: 92.1 cells, overnight treatment, FIG. 3A
Protocol: as §1
92.1 uveal melanoma were treated with DMSO, Compound (A1) (8 nM) and increasing concentrations of Isotype-(B1), anti-PMEL17-(B1) and anti-PMEL17-(B2) ADCs as indicated. Following drug treatment for 2 days, cells were processed for determination of IP1 levels using TR-FRET (time-resolved fluorescent resonance energy transfer). IP1 levels (nM) are presented as mean of 3 independent replicates.

[2] = Stability in buffer at pH 5.6 and in lysosomes; assay type: in vitro ADME; details: buffer pH 5.6, lysosomes, 4 h, FIG. 5D
Protocol: as §2

[3] = Stability of Compound (A2), plasma, rat; assay type: in vitro ADME; details: read-out: Plasma t½ (converted)
Protocol: as §2

[4] = PK of Compound (A2) in female balb/c mice; assay type: in vivo
Protocol: as §2

[5] = Stability of Compound (A2), hepatic microsomes, human; assay type: in vitro ADME; details: intrinsic clearance
Protocol: as §2

[6] = Stability of Compound (A2), hepatic S9 fraction, rat; assay type: in vitro ADME
Protocol: as §2

[7] = Stability of Compound (A2), hepatic microsomes, rat; assay type: in vitro ADME; details: intrinsic clearance
Protocol: as §2

[8] = Stability of Compound (A2), hepatocytes, human; assay type: in vitro ADME
Protocol: as §2

[9] = Chemical stability of Compound (A2) in three different systems; assay type: physicochemical; details: FIG. 5B
Protocol: as §2

[10] = Stability of Compound (A2), hepatic S9 fraction, mouse; assay type: in vitro ADME; details: read-out: Hepatic S9 (+/−NADPH) t½ (converted)
Protocol: as §2

[11] = Stability of Compound (A2), hepatocytes, rat; assay type: in vitro ADME
Protocol: as §2

[12] = Stability of Compound (A2), plasma, mouse; assay type: in vitro ADME; details: read-out: Plasma t½ (converted)
Protocol: as §2

[13] = test system: MIAPACA pancreatic ductal adenocarcinoma cells; test: Resazurin-based viability assay, MIAPACA cells; assay type: cell-based; details: Homo sapiens, MIA PaCa-2, WT, 96 or 120 hours, Table 4
Protocol: as §4, with “92.1 uveal melanoma and MIAPACA pancreatic ductal adenocarcinoma cells were seeded at low cell density in 96-well plates and treated with increasing concentrations of Compound (A1) or Compound (A2) as indicated. Following” for “Following”

[14] = Stability of Compound (A2), hepatic microsomes, mouse; assay type: in vitro ADME; details: intrinsic clearance
Protocol: as §2

[15] = Stability of Compound (A2), hepatic S9 fraction, human; assay type: in vitro ADME; details: read-out: Hepatic S9 (+/−NADPH) t½ (converted)
Protocol: as §2

SMILES: C=C1C(=O)N[C@@H](C)C(=O)N(C)[C@@H](C)C(=O)N[C@@H]([C@H](OC(=O)[C@@H](NC(C)=O)[C@H](O)C(C)C)C(C)C)C(=O)N(C)[C@@H]([C@@H](C)OC)C(=O)O[C@H](C)[C@H](NC(C)=O)C(=O)O[C@H](Cc2ccccc2)C(=O)N1C [Compound (A2), (R)-1-((3S,6S,9S,12S,18R,21S,22R)-21-acetamido-18-benzyl-3-((R)-1-methoxyethyl)-4,9,10,12,16,22-hexamethyl-15-methylene-2,5,8,11,14,17,20-heptaoxo-1,19-dioxa-4,7,10,13,16-pentaazacyclodocosan-6-yl)-2-methylpropyl (2S,3R)-2-acetamido-3-hydroxy-4-methylpentanoate] (Ac-T[dPhLac][NMeDha]A[NMeA][Leu(3R-O(AcLeu(3R-OH)))][NMeT](Me); ester 1-C)
- ERK signaling (immunoblots) (ERK signaling): reduced ERK signaling
- half-life [1]: 2 h
- apoptosis (Annexin V) (92.1 cells): induced apoptosis in UM cells in GNAQ/11 dependent manner
- GI50 (92.1 uveal melanoma; 92.1, GNAQ^Q209L, 96 or 120 hours, Table 4, read-out: GI50): 7.7 nM
- GI50 (92.1 uveal melanoma; 92.1 GNAQ^Q209L, Table 1, read-out: GI50 (nM) 92.1GNAQ^Q209L): 22.1 nM
- anti-UM activity (92.1 uveal melanoma; 92.1 vs MIAPACA, FIG. 1): potent target-dependent anti-UM activity
- IP1 levels (GNAQ/11): reduced IP1 levels
- stability in buffer and lysosomes [2]: stable in buffer at pH 5.6 and in lysosomes over 4 h
- half-life [3]: 4.1 h
- clearance ([4]; FIG. 5C): high clearance
- elimination half-life ([4]; FIG. 5C): short elimination half-life
- half-life ([4]; mouse, in vivo, 1 mg/kg iv): 0.4 ± 0.01 h
- clearance ([4]; mouse, in vivo, 1 mg/kg iv, read-out: CL): 175 ± 29 mL/min/kg
- Hepatic microsomes [5]: 0.044 mL/min/kg
- half-life ([6]; hepatic S9 fraction, +NADPH, read-out: Hepatic S9 (+/−NADPH) t½): > 2 h
- Hepatic S9 (+/−NADPH) t½ (h) ([6]; −NADPH): >2/>2 h
- Hepatic microsomes [7]: 0.033 mL/min/kg
- Hepatocytes (ul/min/10^6 cells) [8]: <4 ul/min/10^6 cells
- chemical stability [9]: good chemical stability in three different systems
- half-life ([10]; +NADPH): 1.9 h
- half-life ([10]; −NADPH): > 2 h
- Hepatocytes (ul/min/10^6 cells) [11]: 8 ul/min/10^6 cells
- half-life [12]: 2.1 h
- GI50 [13]: > 10000 nM
- Hepatic microsomes [14]: 0.107 mL/min/kg
- half-life ([15]; +NADPH): 1.9 h
- half-life ([15]; −NADPH): > 2 h
